Experiment [1] deals with BIR3 domain of human XIAP (residues 252-350) (Homo sapiens (Human), UniProt P98170). The experiment can be described thus: XIAP in vitro competitive displacement binding assay (fluorescence polarization). To be noted: for inhibition at 0.04 µM: 1 h, read-out: IC50 or PI Xiap: PI; for pIC50: read-out: IC50 or PI Xiap: IC50.
In experiment [2] the target is BIR3 domain of human cIAP-1 (residues 267-363) (Homo sapiens (Human), UniProt Q13490). The experiment can be described thus: cIAP-1 in vitro competitive displacement binding assay (fluorescence polarization; Probe A AVPIK(5&6FAM)-amide or Probe B AbuRPFK(5&6FAM)-amide). To be noted: for inhibition at […]: 3 h, read-out: IC50 or PI cIAP1: PI.
For experiment [3], the system named is EVSA-T (human breast carcinoma). The experiment can be described thus: Anti-proliferative activity, Alamar Blue assay, EVSA-T. Type of experiment: cell-based. To be noted: Homo sapiens, EVSA-T; for pEC50: read-out: EVSA-T prolif (EC50).
Where [4] appears, read: read-out: IC50 or PI cIAP1: IC50.
[5] abbreviates: Probe B AbuRPFK(5&6FAM)-amide, read-out: IC50 or PI cIAP1: IC50.

pEC50, pIC50: −log10 of the molar value. Counter-ions that a name gives are not always drawn. Like-named read-outs stand apart in the source and are kept apart here.

With `C[C@@H]1CN(CC(=O)N2CC(C)(C)c3cnc(Oc4ccccc4Cl)cc32)[C@@H](C(=O)N2CCOCC2)CN1` [Example 165, 1-[6-(2-Chlorophenoxy)-3,3-dimethyl-1H,2H,3H-pyrrolo[3,2-c]pyridin-1-yl]-2-[(2R,5R)-5-methyl-2-[(morpholin-4-yl)carbonyl]piperazin-1-yl]ethan-1-one dihydrochloride], the inhibition at 0.04 µM in experiment [1] is 65%. The pIC50 in experiment [2] was greater than 6.00; in experiment [2] (setting [4]), 7.85. Moreover, the pEC50 in experiment [3] (72 h) was 6.19.
`C[C@@H]1CN(CC(=O)N2CC(C)(C)c3cnc(Cc4ccc(F)cc4)cc32)[C@@H](CN2CCOCC2)CN1` [Example 237, 1-{6-[(4-Fluorophenyl)methyl]-3,3-dimethyl-1H,2H,3H-pyrrolo[3,2-c]pyridin-1-yl}-2-[(2R,5R)-5-methyl-2-(morpholin-4-ylmethyl)piperazin-1-yl]ethan-1-one hydrochloride]: the negative logarithm of the IC50 (pIC50) in experiment [1] was 7.26. For the same compound, in experiment [2] (Probe B, @ 0.012 μM), the inhibition at […] was 97%. The negative logarithm of the EC50 (pEC50) in experiment [3] (72 hours, Alamar Blue) is 8.34.
The corresponding values for `C[C@@H]1CN(CC(=O)N2CC(C)(C)c3nnc(Cc4ccc(F)cc4F)cc32)[C@@H](CN2CCCC2=O)CN1` [Example 201, 1-{[(2R,5R)-1-(2-{3-[(2,4-Difluorophenyl)methyl]-7,7-dimethyl-5H,6H,7H-pyrrolo[3,2-c]pyridazin-5-yl}-2-oxoethyl)-5-methylpiperazin-2-yl]methyl}pyrrolidin-2-one hydrochloride] are 7.09, 88% and 8.28.
For `COC[C@H]1CN[C@H](C)CN1CC(=O)N1CC(C)(C)c2cnc(Cc3cccc(Cl)c3)cc21` [Example 86, 1-{6-[(3-Chlorophenyl)methyl]-3,3-dimethyl-1H,2H,3H-pyrrolo[3,2-c]pyridin-1-yl}-2-[(2R,5R)-2-(methoxymethyl)-5-methylpiperazin-1-yl]ethan-1-one, hydrochloride salt], the negative logarithm of the IC50 (pIC50) in experiment [1] is 6.54; in experiment [2], greater than 6.00; in experiment [2] (setting [5]) it was 7.92. Moreover, the pEC50 in experiment [3] (72 hours, Alamar Blue) was 6.51.
Regarding `C[C@@H]1CN(CC(=O)N2CC(C)(C)c3cnc(Cc4ccc(F)cc4F)cc32)[C@@H](Cn2cccnc2=O)CN1` [Example 185, 1-{[(2R,5R)-1-(2-{6-[(2,4-Difluorophenyl)methyl]-3,3-dimethyl-1H,2H,3H-pyrrolo[3,2-c]pyridin-1-yl}-2-oxoethyl)-5-methylpiperazin-2-yl]methyl}-1,2-dihydropyrimidin-2-one dihydrochloride], in experiment [1], the negative logarithm of the IC50 (pIC50) is 7.11. The inhibition at […] in experiment [2] was determined as 94%. Also, the pEC50 in experiment [3] (72 h) is 8.00.
For the compound `C[C@@H]1CN(CC(=O)N2CC(C)(c3ccccc3)c3ccc(C#N)cc32)[C@@H](C(=O)N2CCOCC2)CN1` (stereo partly drawn) [Example 149, 3-Methyl-1-{2-[(2R,5R)-5-methyl-2-[(morpholin-4-yl)carbonyl]piperazin-1-yl]acetyl}-3-phenyl-2,3-dihydro-1H-indole-6-carbonitrile hydrochloride], the pIC50 in experiment [1] is 7.26; in experiment [2] (setting [5]) it was 6.89. In experiment [3] (72 hours, Alamar Blue), the negative logarithm of the EC50 (pEC50) was 5.04.
For `COC[C@H]1CN[C@H](C)CN1CC(=O)N1CC(C)(C)c2cnc(-c3ccc(C)s3)cc21` [Example 148, 1-[3,3-Dimethyl-6-(5-methylthiophen-2-yl)-1H,2H,3H-pyrrolo[3,2-c]pyridin-1-yl]-2-[(2R,5R)-2-(methoxymethyl)-5-methylpiperazin-1-yl]ethan-1-one dihydrochloride], the pIC50 in experiment [1] was 6.44; in experiment [2] (setting [4]) it was 7.35. Also, the negative-log EC50 (pEC50) in experiment [3] (72 h) is 5.70.
The corresponding values for `COC[C@H]1CN[C@H](C)CN1CC(=O)N1CC(C)(C)c2cnc(-c3ccoc3)cc21` [Example 145, 1-[6-(Furan-3-yl)-3,3-dimethyl-1H,2H,3H-pyrrolo[3,2-c]pyridin-1-yl]-2-[(2R,5R)-2-(methoxymethyl)-5-methylpiperazin-1-yl]ethan-1-one dihydrochloride] are 6.00, 6.74 and 5.01.
In the case of `COC[C@H]1CN[C@H](C)CN1CC(=O)N1CC(C)(C)c2cnc(Oc3ccccc3Cl)cc21` [Example 110, 1-[6-(2-Chloro-phenoxy)-3,3-dimethyl-2,3-dihydro-pyrrolo[3,2-c]pyridin-1-yl]-2-((2R,5R)-2-methoxymethyl-5-methyl-piperazin-1-yl)-ethanone, hydrochloride salt], the pIC50 is 7.12 in experiment [1] and 7.46 in experiment [2] (setting [5]). For the same compound, the negative-log EC50 (pEC50) in experiment [3] (72 hours, Alamar Blue) is 6.22.
In the case of `CCCC(F)(F)c1cc2c(cn1)C(C)(C)CN2C(=O)CN1C[C@@H](C)NC[C@@H]1Cc1nccs1` [Example 233, 1-[6-(1,1-Difluorobutyl)-3,3-dimethyl-1H,2H,3H-pyrrolo[3,2-c]pyridin-1-yl]-2-[(2S,5R)-5-methyl-2-(1,3-thiazol-2-ylmethyl)piperazin-1-yl]ethan-1-one hydrochloride], in experiment [1], the pIC50 is 7.12. In experiment [2] (Probe B, @ 0.012 μM), the inhibition at […] was 62%. Moreover, the pEC50 in experiment [3] (72 hours, Alamar Blue) was 7.04.
Consider `CC[C@@H]1COCCN1C[C@H]1CN[C@H](C)CN1CC(=O)N1CC(C)(C)c2ncc(Cc3ccc(F)cc3)cc21` [Example 254, 2-[(2R,5R)-2-{[(3R)-3-Ethylmorpholin-4-yl]methyl}-5-methylpiperazin-1-yl]-1-{6-[(4-fluorophenyl)methyl]-3,3-dimethyl-1H,2H,3H-pyrrolo[3,2-b]pyridin-1-yl}ethan-1-one dihydrochloride], for which, in experiment [1], the inhibition at 0.04 µM is 51%. The inhibition at […] in experiment [2] was found to be 98%. Moreover, the negative logarithm of the EC50 (pEC50) in experiment [3] (72 hours, Alamar Blue) was 8.72.
`CC[C@@H]1COCCN1C[C@H]1CN[C@H](C)CN1CC(=O)N1CC(C)(C)c2ncc(C(C)(F)F)cc21` [Example 253, 1-[6-(1,1-Difluoroethyl)-3,3-dimethyl-1H,2H,3H-pyrrolo[3,2-b]pyridin-1-yl]-2-[(2R,5R)-2-{[(3R)-3-ethylmorpholin-4-yl]methyl}-5-methylpiperazin-1-yl]ethan-1-one dihydrochloride]: the pIC50 was 7.30 in experiment [1], greater than 6.00 in experiment [2] and 7.77 in experiment [2] (setting [4]). In addition, in experiment [3] (72 h), the negative-log EC50 (pEC50) was 7.29.
As to `COC[C@H]1CN[C@H](C)CN1CC(=O)N1CC(C)(C)c2ccc(S(=O)(=O)NC(C)C)cc21` [Example 69, 1-[2-((2R,5R)-2-Methoxymethyl-5-methyl-piperazin-1-yl)-acetyl]-3,3-dimethyl-2,3-dihydro-1H-indole-6-sulfonic acid isopropylamide dihydrochloride salt], the results for the negative-log IC50 (pIC50) in experiment [1] and in experiment [2] (setting [4]) were 6.55 and 5.85, respectively. In addition, in experiment [3] (read-out: EVSA-T prolif: % inhibition), the inhibition at 10 µM was determined as 54%.
For `CCCC(F)(F)c1cc2c(cn1)C(C)(C)CN2C(=O)CN1C[C@@H](C)NC[C@@H]1CN1CCOCC1` [Example 239, 1-[6-(1,1-Difluorobutyl)-3,3-dimethyl-1H,2H,3H-pyrrolo[3,2-c]pyridin-1-yl]-2-[(2R,5R)-5-methyl-2-(morpholin-4-ylmethyl)piperazin-1-yl]ethan-1-one hydrochloride], the inhibition at 0.04 µM in experiment [1] (@ 0.04 μM) is 52%. The inhibition at […] in experiment [2] (Probe B, @ 0.012 μM) amounted to 72%. Further, the pEC50 in experiment [3] (72 hours, Alamar Blue) was 7.49.
On the same counts, the results for `CC(C)CC(F)(F)c1cc2c(cn1)C(C)(C)CN2C(=O)CN1C[C@@H](C)NC[C@@H]1CN1CCCC1=O` [Example 225, 1-{[(2R,5R)-1-{2-[6-(1,1-Difluoro-3-methylbutyl)-3,3-dimethyl-1H,2H,3H-pyrrolo[3,2-c]pyridin-1-yl]-2-oxoethyl}-5-methylpiperazin-2-yl]methyl}pyrrolidin-2-one hydrochloride] are 62%, 72% and 7.32.
For `C[C@@H]1CN(CC(=O)N2CC(C)(C)c3cnc(C(F)(F)c4ccccc4)cc32)[C@@H](CN2C(=O)CCC2=O)CN1` [Example 218, 1-{[(2R,5R)-1-(2-{6-[Difluoro(phenyl)methyl]-3,3-dimethyl-1H,2H,3H-pyrrolo[3,2-c]pyridin-1-yl}-2-oxoethyl)-5-methylpiperazin-2-yl]methyl}pyrrolidine-2,5-dione dihydrochloride], in experiment [1], the pIC50 is 7.21. Besides, in experiment [2], the inhibition at […] was 78%. Also, in experiment [3] (72 h), the pEC50 is 7.19.
Consider `C[C@@H]1CN(CC(=O)N2CC(C)(C)c3cnc(Cc4ccc(F)cc4F)cc32)[C@@H](CN2CCC(F)(F)C2)CN1` [Example 208, 1-{6-[(2,4-Difluorophenyl)methyl]-3,3-dimethyl-1H,2H,3H-pyrrolo[3,2-c]pyridin-1-yl}-2-[(2R,5R)-2-[(3,3-difluoropyrrolidin-1-yl)methyl]-5-methylpiperazin-1-yl]ethan-1-one dihydrochloride], for which the pIC50 in experiment [1] was 7.19. The inhibition at […] in experiment [2] came out at 99%. For the same compound, the pEC50 in experiment [3] (72 h) was 8.40.
Turning to `C[C@@H]1CN(CC(=O)N2CC(C)(C)c3cnc(Cc4ccc(F)cc4F)cc32)[C@@H](CN2CCCCC2=O)CN1` [Example 192, 1-{[(2R,5R)-1-(2-{6-[(2,4-Difluorophenyl)methyl]-3,3-dimethyl-1H,2H,3H-pyrrolo[3,2-c]pyridin-1-yl}-2-oxoethyl)-5-methylpiperazin-2-yl]methyl}piperidin-2-one hydrochloride], in experiment [1], the pIC50 was 7.24. Moreover, the inhibition at […] in experiment [2] (Probe B, @ 0.012 μM) stood at 95%. Also, in experiment [3] (72 hours, Alamar Blue), the negative-log EC50 (pEC50) is 8.06.

The values are drawn from patent US9018214B2, “Bicyclic heterocycle compounds and their uses in therapy” (Astex Therapeutics Limited, priority 2011, dated 2015).
